Conditions: nicotine used in the experiments
Protocol: Mixtures were prepared of 10%, 20% and 50% by weight of nicotine on Florite® PS-200 grade and on Florite® R-grade.

## CN1CCCC1c1cccnc1 (stereo not shown) [nicotine]
  starting level of impurity myosmine: 0.14%

Reference: patent US12708136B2, “Supported nicotine composition” (priority 2021, dated 2026)
